The subject of the assay is soybean rust fungus (Phakopsora pachyrhizi) having an amino acid substitution of F129L in a mitochondrial cytochrome b protein. Kind of assay: Leaf disc test: preventive spray, then inoculation with soybean rust fungus spores, lesion area investigated. In kind it is in vivo. To be noted: Comparative Test Example 1 (Table A). The procedure: A true leaf of a soybean (cultivar: Kurosengoku) was cut into a diameter of 1 cm to prepare each leaf disc. To each well of a 24 well microplate was dispensed 1 mL of an agar medium (agar concentration 1.2%), and then one of said leaf disc was placed on each well. To a mixture of Sorpol (registered trademark) 1200KX (0.5 µL), DMSO (4.5 µL), and xylene (5 µL) was added a DMSO solution (20 µL) comprising a test compound (10000 ppm), and the resulting mixture was mixed. The resulting mixture was diluted with ion exchange water to prepare a spray solution comprising a prescribed concentration of the test compound. Said spray solution was sprayed into each leaf disc at a ratio of 10 µL per leaf disc. After 1 day, an aqueous suspension of spores of soybean rust fungus (Phakopsora pachyrhizi) having an amino acid substitution of F129L in a mitochondrial cytochrome b protein (1.0 × 10^5/mL) was inoculated by spraying on each leaf disc. After the inoculation, the microplate was placed into an artificial climate chamber (Lighting: 6 hours, Lights-out: 18 hours, Temperature: 23° C., Humidity: 60%). After 1 day, the leaf discs were air-dried until water droplets on the surfaces of the leaf discs disappeared, and the microplate was placed into the artificial climate chamber again for 12 days. Then, lesion area of soybean rust was investigated. As a result, when the prescribed concentration was 50 ppm, each lesion area of leaf disc treated with any one of the Present compound 2, 6, 8, 25, 29, or 35 as the test compound was 30% or less relative to the lesion area of non-treated leaf disc.
Here, the term of “non-treated” means that a spray solution comprising a test compound was not sprayed into a leaf disc.
Each test is carried out according to the Test Example 1 by using any one of the Present compound S as the test compound with a prescribed concentration of 12.5 ppm. As a result, control effects on soybean rust can be confirmed in the leaf discs treated with test compounds.
Each test is carried out according to the Test Example 1 by using any one of the Present compound S as the test compound with a prescribed concentration of 3.1 ppm. As a result, control effects on soybean rust can be confirmed in the leaf discs treated with test compounds.
Each test was carried out according to the Test Example 1 by using the Present compound 2, 6, 8, 29 or 35, or azoxystrobin, dimoxystrobin, or metominostrobin as the test compound with a prescribed concentration of 50 ppm.

For the compound `CO/C=C(/C(=O)OC)c1cccc2sc(-c3ccccc3)nc12` [Present compound 6], the “Lesion area (%) at the concentration of 50 ppm” value (shortened to “Lesion area (%)”) came to 30%.

Take `CO/C=C(/C(=O)OC)c1cccc2oc(-c3ccccc3)nc12` [Present compound 2]: the “Lesion area (%)” value is 10%.

As to `Cn1nc(Cl)n(-c2cccc3oc(COc4ccccc4)nc23)c1=O` [Present compound 35], the “Lesion area (%)” value amounted to 0%.

For the compound `CNC(=O)/C(=N/OC)c1ccccc1COc1cc(C)ccc1C` [Dimoxystrobin, dimoxystrobin, reference compound], the “Lesion area (%)” value was 100%.

As to `CNC(=O)/C(=N/OC)c1ccccc1Oc1ccccc1` [Metominostrobin, metominostrobin, reference compound], the “Lesion area (%)” value amounted to 100%.

With `Cn1nc(Cl)n(-c2cccc3oc(Cc4ccccc4)nc23)c1=O` [Present compound 29], the “Lesion area (%)” value is on record as 10%.

Take `CO/C=C(/C(=O)OC)c1cccc2ccc(-c3ccccc3)cc12` [Present compound 8]: the “Lesion area (%)” value is on record as 0%.

For the compound `CO/C=C(/C(=O)OC)c1ccccc1Oc1cc(Oc2ccccc2C#N)ncn1` [Azoxystrobin, azoxystrobin, reference compound], the “Lesion area (%)” value came out at 100%.

Values taken from US20230337672A1, “METHOD OF C[…] RUST FUNGUS HAVING RESISTANCE TO QoI FUNGICIDE” (SUMITOMO CHEMICAL COMPANY, LIMITED, priority 2020, published 2023).
